Assay results as given in US5308625A, “Enhancement of transdermal drug delivery using monoalkyl phosphates and other absorption promoters” (priority 1992, dated 1994).
Converted amounts (≈) assume the structure as drawn. “Also recorded” adds a separate entry of the source. Read-outs that look alike come from different tables or passages of the source. Blank lines part the entries; values can stand above or below the compound they belong to.

What was measured:
coronary strips = settings: cited from earlier work; for dependence of vasodilation action on cysteine: presence / absence of cysteine
[1] = system: soluble guanylate cyclase; settings: by nitric oxide liberated from the active metabolite SIN-1A; cited from earlier work
human skin = settings: in vivo; cited from earlier work
human cadaver epidermis [2] = experiment: Skin flux through human cadaver epidermis (modified Franz vertical diffusion cell, 32° C)
[3] = Solubilities of molsidomine in various solvents (saturation at 32° C., HPLC); type: physicochemical
Description: Molsidomine powder was weighed on weighing paper and transferred into the sample vial. Solvent was transferred into the vial followed by insertion of a small Teflon-coated magnetic stirring bar. The sample vial was screw-capped and placed on top of a multiple stirring system obtained from Florida Scientific, Inc. and housed in an incubation oven at 32° C. The sample solutions were examined for saturation. More molsidomine was added to the solutions until saturation was achieved.
The saturated solutions were filtered through a micro filter to remove excess solid molsidomine. The filtered samples were then assayed for molsidomine concentration by the HPLC analytical method.
In this way, the solubility of molsidomine in the particular vehicle(s) was estimated.

[4] = cited from earlier work
human cadaver epidermis [5] = settings: pH 6.8
[6] = cited from earlier work; remark: listed apart in the source
[7] = system: patients with coronary heart disease; settings: cited from earlier work
[8] = oral dose of 2 mg; cited from earlier work
[9] = in vivo; cited from earlier work

SMILES: N#CCN(N=O)N1CCOCC1 [SIN-1A]
dependence of vasodilation action on cysteine (coronary strips): active in both the presence and absence of cysteine | activation of soluble guanylate cyclase [1]: activates the soluble guanylate cyclase

SMILES: O=[N+]([O-])OCC(CO[N+](=O)[O-])O[N+](=O)[O-] [nitroglycerin]
tolerance (coronary strips): tolerance toward the drug developed in coronary strips can be antagonized by cysteine | dependence of vasodilation action on cysteine (coronary strips): depends on the presence of cysteine

SMILES: CCCCCCCCCCCCOP(=O)(O)O [mono-dodecyl phosphate (DDPO4), phosphoric acid mono-dodecyl ester]
human skin irritation potential (human skin): very low human skin irritation potential | permeation enhancement of molsidomine (increment of skin flux) (human cadaver epidermis [2]; addition of 10% DDPO4 to PGML, FIG. 3): four times increment | pirsidomine skin permeation enhancement (human cadaver epidermis [2]; pirsidomine): showed pirsidomine skin permeation enhancement

solubility ([3]; aqueous buffer, Phosphate buffer pH 5.68, read-out: Solubilities): 12.3 ± 1.8 mg/mL (≈ 50.8 mM) | solubility ([3]; organic solvent or mixture, Propylene Glycol (PG), read-out: Solubilities): 85.5 ± 3.9 mg/mL (≈ 353 mM) | solubility ([3]; organic solvent or mixture, propylene glycol and propylene glycol with 10% of oleic acid, lauryl alcohol or PGML, read-out: solubility): ~90 mg/mL (≈ 372 mM) | solubility ([3]; pH 6.8, aqueous buffer, Phosphate buffer pH 6.80, read-out: Solubilities): 12.1 ± 1.3 mg/mL (≈ 50 mM) | solubility ([3]; propylene glycol:lauryl alcohol (10%), organic solvent or mixture, PG:Lauryl Alcohol (10%), read-out: Solubilities): 89.3 ± 1.5 mg/mL (≈ 369 mM) | solubility ([3]; propylene glycol:oleic acid (10%), organic solvent or mixture, PG:Oleic Acid (10%), read-out: Solubilities): 88.1 ± 0.7 mg/mL (≈ 364 mM) | solubility ([3]; propylene glycol:pgml (10%), organic solvent or mixture, PG:PGML (10%), read-out: Solubilities): 92.9 ± 2.8 mg/mL (≈ 384 mM) | skin flux from aqueous solution (human cadaver epidermis [5]): 9.7±1.9 μg/hr-cm^2
SMILES: CCOC(=O)[N-]c1cn(N2CCOCC2)n[o+]1 [Molsidomine, N-5-ethoxycarbonyl-3-morpholinosydnonimine]
Saturated solubility ([4]; Glycerin, 25° C.): 1.80% | Saturated solubility ([4]; Glycol salicylate, 25° C.): 15.1% | Saturated solubility ([4]; Isopropyl myristate, 25° C.): 0.09% | Saturated solubility ([4]; Octyl.decyl oil, 25° C.): 0.36% | Saturated solubility ([4]; Oleic Acid, 25° C.): 1.37% | Saturated solubility ([4]; PEG 400, 25° C.): 5.23% | Solubility (in words) ([4]; in CHCl3): Freely soluble | Solubility (in words) ([4]; in dil HCl, ethanol, ethyl acetate and methanol): Soluble | Solubility (in words) ([4]; in ether, petr ether): very slightly soluble | Solubility (in words) ([4]; in propylene glycol and a variety of organic solvents): soluble | Solubility (in words) ([4]; in water, acetone, benzene): sparingly soluble | Chemical stability (in words) ([6]; aqueous solution of pH 5 to 7): very stable; also recorded: most stable | t90 ([6]; pH 1-2, 20° C.): 38 days | t90 ([6]; pH 4, 20° C.): 250 days | t90 ([6]; pH 5-7, 20° C.): 950 days | t90 ([6]; pH 10, 20° C.): 400 days | t90 ([6]; pH 11, 20° C.): 40 days | Photosensitivity ([6]; particularly in sunlight): photosensitive | treatment and prevention of anginal pectoris ([7]; daily oral dosing of 2 mg for 3 to 4 times, clinical studies): effective | anti-anginal effect ([7]; human, in vivo): sustained anti-anginal effect | duration of anti-anginal effects ([7]; single oral dose of 2 mg, patients with coronary heart disease): 3 to 5 h | total clearance [8]: 46,000 ml/hr | tolerance (coronary strips): insignificant tolerance | metabolism [9]: can be metabolized to SIN-1
